Data: article PMC2966118 (The Journal of Biological Chemistry, 2010)

Target: human recombinant TPC2 (hTPC2, HA-HsTPC2) (Homo sapiens, UniProt Q8NHX9)
Experiment: single-channel recording in planar lipid bilayer, open probability
Assay type: biochemical

Chain of human recombinant TPC2 (hTPC2, HA-HsTPC2) (Q8NHX9 whole entry): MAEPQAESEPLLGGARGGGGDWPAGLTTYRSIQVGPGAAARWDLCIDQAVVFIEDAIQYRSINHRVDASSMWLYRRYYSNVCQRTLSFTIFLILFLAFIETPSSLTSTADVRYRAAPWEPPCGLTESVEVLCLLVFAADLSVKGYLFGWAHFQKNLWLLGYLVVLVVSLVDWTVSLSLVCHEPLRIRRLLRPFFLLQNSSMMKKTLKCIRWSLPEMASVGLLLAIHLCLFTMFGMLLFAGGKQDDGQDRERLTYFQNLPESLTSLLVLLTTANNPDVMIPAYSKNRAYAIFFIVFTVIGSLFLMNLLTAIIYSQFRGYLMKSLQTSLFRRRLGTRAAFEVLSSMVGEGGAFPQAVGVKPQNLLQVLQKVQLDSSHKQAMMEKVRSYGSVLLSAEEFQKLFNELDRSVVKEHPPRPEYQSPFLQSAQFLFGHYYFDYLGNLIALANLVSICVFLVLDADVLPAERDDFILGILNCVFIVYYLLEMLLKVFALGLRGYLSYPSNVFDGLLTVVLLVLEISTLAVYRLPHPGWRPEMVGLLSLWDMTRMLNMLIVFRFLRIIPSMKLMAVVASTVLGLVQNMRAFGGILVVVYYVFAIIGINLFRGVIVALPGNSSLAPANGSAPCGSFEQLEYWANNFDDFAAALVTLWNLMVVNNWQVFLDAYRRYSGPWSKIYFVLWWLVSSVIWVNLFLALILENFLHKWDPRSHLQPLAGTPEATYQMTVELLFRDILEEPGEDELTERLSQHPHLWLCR

Nc1ncnc2c1ncn2[C@@H]1O[C@H](COP(=O)(O)OP(=O)(O)OC[C@H]2O[C@@H]([n+]3cccc(C(=O)O)c3)[C@H](O)[C@@H]2O)[C@@H](O)[C@H]1OP(=O)(O)O [NAADP]
EC50: 500 nM
